From patent US8993585B2, “Cyclic amine substituted pyrimidinediamines as PKC inhibitors” (Rigel Pharmaceuticals, Inc., priority 2007, dated 2015)

Tested on: Human primary T cells
Test: IL-2 ELISA, Human Primary T Cell, Anti-CD3+CD28+ (Example 3)
Assay type: cell-based
Conditions: anti-CD3+CD28 stimulation
How it was run: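 IL-2 was read by ELISA after stimulation on wells pre-coated with 1 ug/ml αCD3 and 5 μg/ml αCD28. Before this, 100,000 human primary T cells per well spent 1 h at 37 °C with test compound in Yssel's medium. The counter-screen replaced antibody stimulation with PMA (0.5 ng/ml final) and ionomycin (0.1 uM final).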

Row | SMILES | IC50 (Homo sapiens, T-cell, 24 h) [nM] | IC50 (24 hours) [nM] | other results
1 | COc1cc(Nc2ncc(F)c(NC3CC(C)(C)NC(C)(C)C3)n2)cc(OCCN2CCCC2)c1 [Compound I-435] | 550 |  | 
2 | CN1C(C)(C)CC(Nc2nc(Nc3ccc(N4CCN(S(C)(=O)=O)CC4)c(Cl)c3)ncc2[N+](=O)[O-])CC1(C)C [Compound I-73] |  | 665 | 
3 | CN1C(C)(C)CC(Nc2nc(Nc3ccc(C(F)(F)F)c(C(F)(F)F)c3)ncc2F)CC1(C)C [Compound I-410] |  | 1440 | 
4 | CCOC(=O)c1cnc(Nc2ccc(OC)c(Cl)c2)nc1NC1CC(C)(C)N(C)C(C)(C)C1 [Compound I-80] |  | 2690 | 
5 | COc1ccc(Nc2ncc(C)c(NC3CC(C)(C)N(C)C(C)(C)C3)n2)cc1Cl [Compound I-27] |  | 497 | 
6 | CN1C(C)(C)CC(Nc2nc(Nc3ccc4cn[nH]c4c3)ncc2F)CC1(C)C [II-40] |  | 2970 | 
7 | COC(=O)/C=C/N1C(C)(C)CC(Nc2nc(Nc3ccc(OC)c(OC)c3)ncc2F)CC1(C)C [Compound I-297] |  | 24700 | 
8 | CC1(C)CC(Nc2nc(Nc3cccc(-n4cnnn4)c3)ncc2F)CC(C)(C)N1 [Compound I-391] |  | 220 | 
9 | CN1C(C)(C)CC(Nc2nc(Nc3cc(C(F)(F)F)c(Br)c(C(F)(F)F)c3)ncc2F)CC1(C)C [Compound I-117] |  | 1250 | 
10 | COc1cc(Nc2ncc(C#N)c(NC3CC(C)(C)NC(C)(C)C3)n2)cc(-n2cnnn2)c1 [Compound I-403] |  | 500 | 
11 | COc1cc(Nc2ncc(OC)c(NC3CC(C)(C)N(C)C(C)(C)C3)n2)cc(OC)c1 [Compound I-423] | 3500 |  | 
12 | COc1ccc(Nc2ncc(F)c(NC3CC(C)(C)N(C)C(C)(C)C3)n2)cc1-c1cnn(C)c1 [Compound I-184] |  | 2290 | 
13 | CC(=O)Nc1ccc(Nc2ncc(F)c(NC3CC(C)(C)N(C)C(C)(C)C3)n2)cc1C(F)(F)F [Compound I-161] |  | 1050 | 
14 | CN1C(C)(C)CC(Nc2nc(Nc3cc(O)cc(O)c3)ncc2F)CC1(C)C [Compound I-384] |  | 9510 | 
15 | CC1CC(c2ccc(Nc3ncc(F)c(NC4CC(C)(C)N(C)C(C)(C)C4)n3)cc2)CC(C)O1 (stereo not drawn) [Compound I-222] |  | 1530 | 
16 | CN1C(C)(C)CC(Nc2nc(Nc3cccc(O)c3)ncc2F)CC1(C)C [Compound I-327] |  | 5080 | 
17 | CC(=O)N1C(C)(C)CC(Nc2nc(Nc3ccc(N4CCN(S(C)(=O)=O)CC4)c(C(F)(F)F)c3)ncc2F)CC1(C)C [Compound I-215] |  | 25500 | 
18 | COc1ccc(Nc2ncc(F)c(NC3CCC(C)(C)N(C)C(C)(C)C3)n2)cc1OC (stereo not drawn) [Compound I-267, 5-Fluoro-N2-[3,4-dimethoxy]phenyl-N4-(1,2,2,7,7-pentamethylazepan-4-yl)-2,4-pyrimidinediamine] |  | 11700 | 
19 | CC1(C)CC(Nc2nc(Nc3ccc(F)c(-n4cnnn4)c3)ncc2F)CC(C)(C)N1 [Compound I-467] |  | 460 | 
20 | CN1C(C)(C)CC(Nc2nc(Nc3ccc(C(=O)NCc4cccnc4)cc3)ncc2F)CC1(C)C [Compound I-367] |  | 3700 | 
21 | COc1ccc(Nc2ncc(F)c(N(Cc3ccc4ccccc4n3)C3CC(C)(C)N(C)C(C)(C)C3)n2)cc1OC(F)F [Compound I-321] | 5950 |  | 
22 | CN1C(C)(C)CC(Nc2nc(Nc3ccc(F)c(C#N)c3)ncc2C(F)(F)F)CC1(C)C [Compound I-170] |  | 2650 | 
23 | CN1C(C)(C)CC(Nc2nc(Nc3cccc(-c4cccnc4)c3)ncc2F)CC1(C)C [Compound I-107] |  | 750 | 

Row | SMILES | IC50 (Homo sapiens, T-cell, 24 h) [nM] | IC50 (24 hours) [nM] | other results
24 | COc1ccc(Nc2ncc(F)c(NC3CC(C)(C)N(C)C(C)(C)C3)n2)cc1OCC(=O)NC1CC1 [Compound I-412] |  | 6550 | 
25 | COc1cc(Nc2ncc(F)c(N(Cc3ccccc3)C3CC(C)(C)N(C)C(C)(C)C3)n2)cc(OC)c1 [Compound I-308] | 809 |  | 
26 | COc1cc(O)cc(Nc2ncc(F)c(NC3CC(C)(C)NC(C)(C)C3)n2)c1 [Compound I-453] | 1050 |  | 
27 | CN1C(C)(C)CC(Nc2nc(Nc3ccc4c(c3)OCCO4)ncc2C#C[Si](C)(C)C)CC1(C)C [II-150] |  |  | IC50 (T-cell, 24 hours): 3580 nM
28 | CC1(C)CC(Nc2nc(Nc3ccc(N4CCN(S(C)(=O)=O)CC4)c(Cl)c3)ncc2F)CC(C)(C)N1 [Compound I-258] |  | 399 | 
29 | CN1C(C)(C)CC(Nc2ccnc(Nc3cccc(C#N)c3)n2)CC1(C)C [Compound I-227] | 806 |  | 
30 | Cc1cnc(Nc2ccc(N3CCN(C)CC3)c(C(F)(F)F)c2)nc1NC1CC(C)(C)N(C)C(C)(C)C1 [Compound I-30] |  | 335 | 
31 | Cc1cnc(Nc2ccc(C#N)c(Cl)c2)nc1NC1CC(C)(C)N(C)C(C)(C)C1 [Compound I-28] |  | 455 | 
32 | CN1C(C)(C)CC(Nc2nc(Nc3ccc(Br)c(F)c3)ncc2F)CC1(C)C [Compound I-110] |  | 491 | 
33 | Cc1nnnn1-c1cccc(Nc2ncc(C#N)c(NC3CC(C)(C)N(C)C(C)(C)C3)n2)c1 [Compound I-462] |  | 270 | 
34 | Cc1ccc(Nc2ncc(F)c(N(Cc3ccccc3)C3CC(C)(C)N(C)C(C)(C)C3)n2)cc1C#N [Compound I-313] | 793 |  | 
35 | COc1cccc(Nc2ncc(F)c(NC3CCC(C)(C)N(C)C(C)(C)C3)n2)c1 (stereo not drawn) [Compound I-269, 5-Fluoro-N2-[3-methoxy]phenyl-N4-(1,2,2,7,7-pentamethylazepan-4-yl)-2,4-pyrimidinediamine] |  | 8200 | 
36 | CC(C)Oc1ccc(Nc2ncc(F)c(NC3CC(C)(C)N(C)C(C)(C)C3)n2)cc1Cl [Compound I-346] |  | 248 | 
37 | COc1cc(Nc2ncc(F)c(NC3CC(C)(C)N(C)C(C)(C)C3)n2)cc(OCCN2CCOCC2)c1 [Compound I-431] | 450 |  | 
38 | COc1cc(Nc2ncc(F)c(NC3CC(C)(C)N(C)C(C)(C)C3)n2)cc(OC)c1 [Compound I-307] |  | 327 | 
39 | CN1C(C)(C)CC(Nc2nc(Nc3ccc(-c4cnn(C)c4)cc3)ncc2F)CC1(C)C [Compound I-144] |  | 1060 | 
40 | COC(=O)N1CCN(c2cc(Nc3ncc(F)c(NC4CC(C)(C)N(C)C(C)(C)C4)n3)ccc2Cl)CC1 [Compound I-43] |  | 890 | 
41 | CCN1C(=O)C(C)(C)Oc2cc(Nc3ncc(C#C[Si](C)(C)C)c(NC4CC(C)(C)N(C)C(C)(C)C4)n3)ccc21 [II-151] |  |  | IC50 (T-cell, 24 hours): 1250 nM
42 | CN1C(C)(C)CC(Nc2nc(Nc3ccc(OC(F)(F)F)c(Cl)c3)ncc2F)CC1(C)C [Compound I-334] |  | 1010 | 
43 | CN1C(C)(C)CC(Nc2nc(Nc3ccc(F)c(-c4cc5ccccc5s4)c3)ncc2F)CC1(C)C [Compound I-181] |  | 1320 | 
44 | COc1cc(Nc2ncc(F)c(NC3CC(C)(C)N(C)C(C)(C)C3)n2)cc(OC)c1OC [Compound I-19] |  | 1230 | 
45 | COC(=O)CCN1C(C)(C)CC(Nc2nc(Nc3ccc(OC)c(C(F)(F)F)c3)ncc2F)CC1(C)C [Compound I-295] |  | 5100 | 

More lines, main results first:

Row | IC50 (Homo sapiens, T-cell, 24 h) [nM] | IC50 (24 hours) [nM] | SMILES | other results
46 | 373 |  | CN1C(=O)C(C)(C)Oc2cc(Nc3ncc(F)c(NC4CC(C)(C)N(C)C(C)(C)C4)n3)cnc21 [II-54] | 
47 | 1370 |  | CN1C(C)(C)CC(Nc2nc(Nc3ccc4c(c3)OC(F)(F)O4)ncc2F)CC1(C)C [II-37] | 
48 |  | 164 | CCN1C(=O)C2(CCC2)Oc2cc(Nc3ncc(F)c(NC4CC(C)(C)N(C)C(C)(C)C4)n3)ccc21 [II-69] | 
49 | 255 |  | CCN1C(=O)C(F)(F)Oc2cc(Nc3ncc(C#N)c(NC4CC(C)(C)N(C)C(C)(C)C4)n3)cnc21 [II-65] | 
50 | 3600 |  | CCN(CC)c1ccc(-c2csc(Nc3ncc(F)c(NC4CC(C)(C)N(C)C(C)(C)C4)n3)n2)cc1 [II-135] | 
51 |  | 410 | CC(C)N1C(=O)C2(CCC2)Oc2cc(Nc3ncc(F)c(NC4CC(C)(C)N(C)C(C)(C)C4)n3)ccc21 [II-165] | 
52 | 750 |  | CN1C(C)(C)CC(Nc2nc(Nc3ccc4c(c3)oc(=O)n4CCF)ncc2F)CC1(C)C [II-172] | 
53 | 229 |  | CC(C)n1c(=O)oc2cc(Nc3ncc(F)c(NC4CC(C)(C)N(C)C(C)(C)C4)n3)ccc21 [II-47] | 
54 | 8910 |  | CC1(C)CC(Nc2nc(Nc3ccc4c(c3)OCC(C(N)=O)O4)ncc2F)CC(C)(C)N1 (stereo not drawn) [II-159] | 
55 | 3450 |  | CCN(CC)C1CCC(Nc2nc(Nc3ccc(N4CCN(S(C)(=O)=O)CC4)c(C(F)(F)F)c3)ncc2F)CC1 (stereo not drawn) [IV-9, N4-(4-Diethylamino)cyclohexyl-5-fluoro-N2-[4-(4-methylsulfonylpiperazino)-3-trifluoromethyl]phenyl-2,4-pyrimidinediamine] | 
56 | 967 |  | CN1C(C)(C)CC(Nc2nc(Nc3ccc4c(cnn4C)c3)ncc2F)CC1(C)C [II-39] | 
57 | 3500 |  | CN1C(C)(C)CC(Nc2nc(Nc3ccc4c(c3)oc(=O)n4CCN3CCOCC3)ncc2C#N)CC1(C)C [II-169] | 
58 | 540 |  | C#Cc1cnc(Nc2ccc3c(c2)OC(C)(C)C(=O)N3CC)nc1NC1CC(C)(C)N(C)C(C)(C)C1 [II-152] | 
59 | 263 |  | CCCN1C(=O)C(C)(C)Oc2cc(Nc3ncc(F)c(NC4CC(C)(C)N(C)C(C)(C)C4)n3)ccc21 [II-48] | 
60 |  | 407 | CN1C(C)(C)CC(Nc2nc(Nc3ccc4c(c3)OC(C)(C)C(=O)N4)ncc2F)CC1(C)C [II-33] | 
61 | 4410 |  | CCN(CC)C1CCC(Nc2nc(Nc3ccc(N4CCN(C)CC4)c(Cl)c3)ncc2F)CC1 (stereo not drawn) [IV-8, N2-[3-Chloro-4-(4-methylpiperazino)]phenyl-N4-(4-diethylamino)cyclohexyl-5-fluoro-2,4-pyrimidinediamine] | 
62 | 1470 |  | CN1C(C)(C)CC(Nc2nc(Nc3cc4c(cc3Cl)OCCO4)ncc2F)CC1(C)C [II-116] | 
63 | 835 |  | CN1C(C)(C)CC(Nc2nc(Nc3nc(-c4ccc(Cl)cc4)cs3)ncc2F)CC1(C)C [II-15] | 
64 | 1840 |  | CN1C(C)(C)CC(Nc2nc(Nc3cc4c(cc3Cl)OCO4)ncc2F)CC1(C)C [II-115] | 
65 | 890 |  | Cc1cccc2sc(Nc3ncc(F)c(NC4CC(C)(C)N(C)C(C)(C)C4)n3)nc12 [II-19] | 
66 | 3690 |  | CN1C(C)(C)CC(Nc2nc(Nc3ccc4c(c3)OC(C)(C)O4)ncc2F)CC1(C)C [II-103] | 
67 | 4110 |  | CN1C(C)(C)CC(Nc2nc(Nc3nc4cc(Cl)ccc4o3)ncc2F)CC1(C)C [II-12] | 
68 | 4610 |  | CCN(CC)C1CCC(Nc2nc(Nc3ccc(OC)c(Cl)c3)ncc2F)CC1 (stereo not drawn) [IV-5, N2-(3-Chloro-4-methoxy)phenyl-N4-(4-diethylamino)cyclohexyl-5-fluoro-2,4-pyrimidinediamine] | 
69 | 4880 |  | CN1CCc2cc(Nc3ncc(F)c(NC4CC(C)(C)N(C)C(C)(C)C4)n3)ccc21 [II-51] | 
